These results are taken from patent US20240342292A1, “Compounds for the Degradation of EGFR Kinase” (BeiGene Switzerland GmbH, priority 2021, published 2024).

As a reminder, the DC50 is the concentration at which degradation of the target reaches its halfway point. Low values mean degradation at low concentration, high ones degradation only at high concentration. The Dmax is the greatest extent of degradation seen. High values mean a fuller loss of target, low ones a partial loss of target.

One experiment addresses T1, L858R/T790M/C797S EGFR (Homo sapiens, UniProt P00533, C797S/L858R/T790M).
T1 construct: expressed in transfected cells; host or cells: H1975 clone #25 (lentiviral over-expression, endogenous EGFR knocked out by sgRNA)
Put plainly: EGFR degradation HTRF assay in H1975-clone #25 (LTC) cells. Particulars: 16h treatment; for DC50: H1975 # 25-LTC (L858R/T790M/C797S), HTRF; for Dmax: NCI-H1975, H1975 # 25-LTC (L858R/T790M/C797S), maximum percentage of degradation. Format: cell-based. The essentials:
(§1)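 EGFR levels quantified by HTRF on lysates after 16 h compound exposure (top 10 uM, 5-fold, 8 points) in single-cell H1975 clones expressing only exogenous mutant EGFR after sgRNA knockout of endogenous copies. DC50 derived by four-parameter logistic fitting of inhibition percentage.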

The next experiment concerns Del19/T790M/C797S EGFR. Put plainly: EGFR degradation HTRF assay in H1975-clone #28 (DTC) cells. Format: cell-based. The settings on record: H1975 # 28 DTC (Del19/T790M/C797S), 16h treatment; for DC50: HTRF; for Dmax (%): maximum percentage of degradation. An outline of the steps: as §1
A general note: Time-resolved FRET reads energy transfer from a long-lived donor to a nearby acceptor.

T1 sequence (P00533 25-1210 T790M/C797S/L858R): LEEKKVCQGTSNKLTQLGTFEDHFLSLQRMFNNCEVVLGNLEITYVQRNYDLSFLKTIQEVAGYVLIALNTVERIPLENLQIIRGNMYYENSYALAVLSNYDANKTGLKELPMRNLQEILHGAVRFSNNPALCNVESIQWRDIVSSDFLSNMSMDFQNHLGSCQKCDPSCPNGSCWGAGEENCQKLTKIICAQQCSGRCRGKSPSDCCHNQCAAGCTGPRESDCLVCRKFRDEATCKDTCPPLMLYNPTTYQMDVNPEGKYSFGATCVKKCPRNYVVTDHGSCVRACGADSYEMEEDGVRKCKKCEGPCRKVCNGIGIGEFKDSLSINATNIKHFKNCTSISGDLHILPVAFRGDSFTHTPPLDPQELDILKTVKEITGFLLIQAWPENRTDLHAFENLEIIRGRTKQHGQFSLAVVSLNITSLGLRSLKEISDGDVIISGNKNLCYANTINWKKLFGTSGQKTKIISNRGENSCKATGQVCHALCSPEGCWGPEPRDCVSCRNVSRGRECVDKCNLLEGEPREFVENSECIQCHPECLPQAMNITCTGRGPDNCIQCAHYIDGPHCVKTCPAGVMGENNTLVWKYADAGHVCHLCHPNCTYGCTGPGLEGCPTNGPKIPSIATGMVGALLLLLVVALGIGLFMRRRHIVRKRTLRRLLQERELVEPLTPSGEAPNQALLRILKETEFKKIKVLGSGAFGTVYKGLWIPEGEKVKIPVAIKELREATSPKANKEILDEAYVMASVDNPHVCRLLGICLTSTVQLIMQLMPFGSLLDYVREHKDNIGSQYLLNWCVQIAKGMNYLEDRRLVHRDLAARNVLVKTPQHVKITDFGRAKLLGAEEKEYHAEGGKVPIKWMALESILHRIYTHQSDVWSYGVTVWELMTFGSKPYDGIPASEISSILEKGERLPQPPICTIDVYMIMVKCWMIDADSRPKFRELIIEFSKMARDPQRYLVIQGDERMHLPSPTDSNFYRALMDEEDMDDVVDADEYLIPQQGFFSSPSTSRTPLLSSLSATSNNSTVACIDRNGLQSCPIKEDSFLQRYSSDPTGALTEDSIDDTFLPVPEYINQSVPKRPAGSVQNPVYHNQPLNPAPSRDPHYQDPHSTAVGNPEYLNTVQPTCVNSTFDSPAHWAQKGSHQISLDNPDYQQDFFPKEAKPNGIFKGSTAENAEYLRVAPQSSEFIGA

On L858R/T790M/C797S EGFR, `Cc1cc2cc(n1)-c1cnn(C)c1OCCC[C@@H](C)CN1/C(=N/C2=O)Nc2ccc(CN3CCN(C(=O)[C@@H]4CCN(c5cc(F)c([C@H]6CCC(=O)NC6=O)c(F)c5)C4)C[C@H]3CO)cc21` [Example 196, (R)-3-(2,6-difluoro-4-((R)-3-((S)-3-(hydroxymethyl)-4-(((R,E)-1^1,2^6,7-trimethyl-3-oxo-5^2,5^3-dihydro-1^1H,5^1H-11-oxa-4-aza-5(2,1)-benzo[d]imidazola-2(2,4)-pyridina-1(4,5)-pyrazolacycloundecaphane-56-yl)methyl)piperazine-1-carbonyl)pyrrolidin-1-yl)phenyl)piperidine-2,6-dione] registered a DC50 of 0.716 nM and a Dmax of 87.1%. Besides, in the experiment with Del19/T790M/C797S EGFR, half-maximal degradation (DC50) was put at 0.598 nM and the “Dmax (%)” value turned out to be 78.44%.
The corresponding values for `Cc1cc2cc(n1)-c1cnn(C)c1OCCC[C@@H](C)CN1/C(=N/C2=O)Nc2ccc(CN3CCC4(CC3)CCN(C(=O)C3CN(c5cc(F)c([C@H]6CCC(=O)NC6=O)c(F)c5)C3)CC4)cc21` [Example 12, (R)-3-(2,6-difluoro-4-(3-(9-(((R,E)-1^1,2^6,7-trimethyl-3-oxo-5^2,53-dihydro-1^1H,5^1H-11-oxa-4-aza-5(2,1)-benzo[d]imidazola-2(2,4)-pyridina-1(4,5)-pyrazolacycloundecaphane-5^6-yl)methyl)-3,9-diazaspiro[5.5]undecane-3-carbonyl)azetidin-1-yl)phenyl)piperidine-2,6-dione] are 0.6 nM, 94.3%, 0.5 nM and 86.7%.
At L858R/T790M/C797S EGFR, `Cc1cc2cc(n1)-c1cnn(C)c1OCCC[C@@H](C)CN1/C(=N/C2=O)Nc2ccc(N3CCC(C(=O)N4CC(Oc5cc(F)c([C@H]6CCC(=O)NC6=O)c(F)c5)C4)CC3)cc21` [Example 403, (R)-3-(2,6-difluoro-4-((1-(1-((R,E)-1^1,2^6,7-trimethyl-3-oxo-5^2,5^3-dihydro-1^1H,5^1H-11-oxa-4-aza-5(2,1)-benzo[d]imidazola-2(2,4)-pyridina-1(4,5)-pyrazolacycloundecaphane-5^6-yl)piperidine-4-carbonyl)azetidin-3-yl)oxy)phenyl)piperidine-2,6-dione] displayed a DC50 of 1.07 nM and a Dmax of 87.5%. Further, in the experiment on Del19/T790M/C797S EGFR, half-maximal degradation (DC50) was put at 0.857 nM and the “Dmax (%)” value is listed as 82.98%.
On L858R/T790M/C797S EGFR, `Cc1cc2cc(n1)-c1cnn(C)c1OCCC[C@@H](C)CN1/C(=N/C2=O)Nc2ccc(CN3CCN(C(=O)[C@@H]4CCN(c5cc(F)c(C6CCC(=O)NC6=O)c(F)c5)C4)[C@H](C)C3)cc21` (stereo partly drawn) [Example 106, (R)-3-(2,6-difluoro-4-((R)-3-((R)-2-methyl-4-(((R,E)-1^1,2^6m7-trimethyl-3-oxo-5^2,5^3-dihydro-1^1H,5^1H -11-oxa-4-aza-5(2,1)-benzo[d]imidazola-2(2,4)-pyridina-1(4,5)-pyrazolacycloundecaphane-5^6-yl)methyl)piperazine-1-carbonyl)pyrrolidin-1-yl)phenyl)piperidine-2,6-dione] had a DC50 of 1.7 nM and a Dmax of 79.1%. In the experiment with Del19/T790M/C797S EGFR, it took 1.2 nM to reach half-maximal degradation (DC50) and the “Dmax (%)” value came out at 74.4%.
As for `Cc1cc2cc(n1)-c1cnn(C)c1OCCC[C@@H](C)CN1/C(=N/C2=O)Nc2ccc(N3C[C@@H](C)N(C4CCN(c5cc(F)c([C@H]6CCC(=O)NC6=O)c(F)c5)CC4)C[C@H]3C)cc21` [Example 398, (R)-3-(4-(4-((2R,5R)-2,5-dimethyl-4-((R,E)-1^1,2^6,7-trimethyl-3-oxo-5^2,53-dihydro-1^1H,5^1H-11-oxa-4-aza-5(2,1)-benzo[d]imidazola-2(2,4)-pyridina-1(4,5)-pyrazolacycloundecaphane-5^6-yl)piperazin-1-yl)piperidin-1-yl)-2,6-difluorophenyl)piperidine-2,6-dione], at L858R/T790M/C797S EGFR, the DC50 came out at 4.7 nM and the Dmax was 90.3%. For the same compound, in the experiment on Del19/T790M/C797S EGFR, the DC50 was 4.5 nM and the “Dmax (%)” value is 72.53%.
On L858R/T790M/C797S EGFR, `Cc1cc2cc(n1)-c1cnn(C)c1OCCC[C@@H](C)CN1/C(=N/C2=O)Nc2ccc(C(=O)N[C@H]3CCN(CCc4cc(F)c([C@H]5CCC(=O)NC5=O)c(F)c4)CC3(C)C)cc21` [Example 261, (R,E)-N—((S)-1-(4-((R)-2,6-dioxopiperidin-3-yl)-3,5-difluorophenethyl)-3,3-dimethylpiperidin-4-yl)-1^1,2^6,7-trimethyl-3-oxo-5^2,5^3-dihydro-1^1H,5^1H-11-oxa-4-aza-5(2,1)-benzo[d]imidazola-2(2,4)-pyridina-1(4,5)-pyrazolacycloundecaphane-5^6-carboxamide] gave a DC50 of 0.51 nM and a Dmax of 91.8%. For the same compound, in the experiment with Del19/T790M/C797S EGFR, the DC50 was found to be 0.621 nM and the “Dmax (%)” value was determined as 83.61%.
On L858R/T790M/C797S EGFR, `Cc1cc2cc(n1)-c1cnn(C)c1OCCC[C@@H](C)CN1/C(=N/C2=O)Nc2ccc(C3CCN(CC4CN(c5cc(F)c([C@H]6CCC(=O)NC6=O)c(F)c5)C4)CC3)cc21` [Example 331, (R)-3-(2,6-difluoro-4-(3-((4-((R,E)-1^1,2^6,7-trimethyl-3-oxo-5^2,53-dihydro-1^1H,5^1H-11-oxa-4-aza-5(2,1)-benzo[d]imidazola-2(2,4)-pyridina-1(4,5)-pyrazolacycloundecaphane-5-yl)piperidin-1-yl)methyl)azetidin-1-yl)phenyl)piperidine-2,6-dione] came in with a DC50 of 0.71 nM and a Dmax of 97.1%. Further, in the experiment on Del19/T790M/C797S EGFR, the DC50 is 1.33 nM and the “Dmax (%)” value was found to be 73.69%.
On the same counts, the results for `Cc1cc2cc(n1)-c1cnn(C)c1OCCC[C@@H](C)CN1/C(=N/C2=O)Nc2ccc(CN3CCN(C(=O)[C@@H]4CCN(c5cc(F)c([C@H]6CCC(=O)NC6=O)c(F)c5)C4)CC3)c(F)c21` [Example 59, (R)-3-(2,6-difluoro-4-((R)-3-(4-(((R,E)-5^7-fluoro-1^1,2^6,7-trimethyl-3-oxo-5^2,5^3-dihydro-1^1H,5^1H-11-oxa-4-aza-5(2,1)-benzo[d]imidazola-2(2,4)-pyridina-1(4,5)-pyrazolacycloundecaphane-5^6-yl)methyl)piperazine-1-carbonyl)pyrrolidin-1-yl)phenyl)piperidine-2,6-dione] are 2.92 nM, 82%, 1.48 nM and 78.58%.
On the same counts, the results for `Cc1cc2cc(n1)-c1cnn(C)c1OCCC[C@@H](C)CN1/C(=N/C2=O)Nc2ccc(NC3CN(C4CCN(c5cc(F)c([C@H]6CCC(=O)NC6=O)c(F)c5)CC4)C3)cc21` [Example 459, (R)-3-(2,6-difluoro-4-(4-(3-(((R,E)-1^1,2^6,7-trimethyl-3-oxo-5^2,5^3-dihydro-1^1H,5^1H-11-oxa-4-aza-5(2,1)-benzo[d]imidazola-2(2,4)-pyridina-1(4,5)-pyrazolacycloundecaphane-5^6-yl)amino)azetidin-1-yl)piperidin-1-yl)phenyl)piperidine-2,6-dione] are 0.431 nM, 84.1%, 0.624 nM and 73.95%.
Turning to `Cc1cc2cc(n1)-c1cnn(C)c1OCCC[C@@H](C)CN1/C(=N/C2=O)Nc2ccc(C(=O)N3CCC4(CC3)CN(C(=O)C3CN(c5cc(F)c([C@H]6CCC(=O)NC6=O)c(F)c5)C3)C4)cc21` [Example 221, (R)-3-(2,6-difluoro-4-(3-(7-((R,E)-1^1,2^6,7-trimethyl-3-oxo-5^2,53-dihydro-1^1H,5^1H-11-oxa-4-aza-5(2,1)-benzo[d]imidazola-2(2,4)-pyridina-1(4,5)-pyrazolacycloundecaphane-5^6-carbonyl)-2,7-diazaspirononane-2-carbonyl)azetidin-1-yl)phenyl)piperidine-2,6-dione], on L858R/T790M/C797S EGFR, the DC50 worked out at 0.705 nM and the Dmax is 94%. Besides, in the experiment on Del19/T790M/C797S EGFR, the DC50 stood at 0.901 nM and the “Dmax (%)” value stood at 85.41%.
On the same counts, the results for `Cc1cc2cc(n1)-c1cnn(C)c1OCCC[C@@H](C)CN1/C(=N/C2=O)Nc2ccc(C(=O)N(C)[C@H]3CCN(CCNc4cc(F)c([C@H]5CCC(=O)NC5=O)c(F)c4)C[C@@H]3F)cc21` [Example 352, (R,E)-N—((3S,4S)-1-(2-((4-((R)-2,6-dioxopiperidin-3-yl)-3,5-difluorophenyl)amino)ethyl)-3-fluoropiperidin-4-yl)-N,1^1,2^6,7-tetramethyl-3-oxo-5^2,5^3-dihydro-1^1H,5^1H-11-oxa-4-aza-5(2,1)-benzo[d]imidazola-2(2,4)-pyridina-1(4,5)-pyrazolacycloundecaphane-5^6-carboxamide] are 0.847 nM, 85.6%, 0.814 nM and 79.43%.
The corresponding values for `Cc1cc2cc(n1)-c1cnn(C)c1OCCC[C@@H](C)CN1/C(=N/C2=O)Nc2ccc(C(=O)N3CC4(C3)CN(C(=O)C3CN(c5cc(F)c([C@H]6CCC(=O)NC6=O)c(F)c5)C3)C4)cc21` [Example 229, (R)-3-(2,6-difluoro-4-(3-(6-((R,E)-1^1,2^6,7-trimethyl-3-oxo-5^2,5^3-dihydro-1^1H,5^1H-11-oxa-4-aza-5(2,1)-benzo[d]imidazola-2(2,4)-pyridina-1(4,5)-pyrazolacycloundecaphane-5^6-carbonyl)-2,6-diazaspiroheptane-2-carbonyl)azetidin-1-yl)phenyl)piperidine-2,6-dione] are 1.27 nM, 86.9%, 1.79 nM and 78.12%.
